Assay results reported in US11542235B2, “Herbicidal 3-azaspiro[5.5] undecane-8, 10-dione compounds” (SYNGENTA PARTICIPATIONS AG, priority 2018, dated 2023).

How the values were obtained:
Assay type in all cases: in vivo
Setaria faberi (SETFA) = experiment: Glasshouse herbicidal test, pre- and post-emergence, Setaria faberi; details: 250 g/h, evaluated after 13 days, five point scale; for percentage damage caused to the plant, SETFA POST: post-emergence; for percentage damage caused to the plant, SETFA PRE: pre-emergence
Protocol: (§1) Seeds of a variety of test species are sown in standard soil in pots (Lolium perenne (LOLPE), Setaria faberi (SETFA), Alopecurus myosuroides (ALOMY), Echinochloa crus-galli (ECHCG), Avena fatua (AVEFA)). After cultivation for one day (pre-emergence) or after 8 days cultivation (post-emergence) under controlled conditions in a glasshouse (at 24/16° C., day/night; 14 hours light; 65% humidity), the plants are sprayed with an aqueous spray solution derived from the formulation of the technical active ingredient in acetone/water (50:50) solution containing 0.5% Tween 20 (polyoxyethelyene sorbitan monolaurate, CAS RN 9005-64-5). Compounds are applied at […]. The test plants are then grown in a glasshouse under controlled conditions in a glasshouse (at 24/16° C., day/night; 14 hours light; 65% humidity) and watered twice daily. After 13 days for pre and post-emergence, the test is evaluated for the percentage damage caused to the plant. The biological activities are shown in the following table on a five point scale (5=80-100%; 4=60-79%; 3=40-59%; 2=20-39%; 1=0-19%).

Lolium perenne (LOLPE) = experiment: Glasshouse herbicidal test, pre- and post-emergence, Lolium perenne; details: 250 g/h, evaluated after 13 days, five point scale; for percentage damage caused to the plant, LOLPE POST: post-emergence; for percentage damage caused to the plant, LOLPE PRE: pre-emergence
Protocol: as §1

[1] = test system: Alopecurus myosuroides (ALOMY); experiment: Glasshouse herbicidal test, pre- and post-emergence, Alopecurus myosuroides; details: 250 g/h, evaluated after 13 days, five point scale; for percentage damage caused to the plant, ALOMY POST: post-emergence; for percentage damage caused to the plant, ALOMY PRE: pre-emergence
Protocol: as §1

[2] = test system: Echinochloa crus-galli (ECHCG); experiment: Glasshouse herbicidal test, pre- and post-emergence, Echinochloa crus-galli; details: 250 g/h, evaluated after 13 days, five point scale; for percentage damage caused to the plant, ECHCG PRE: pre-emergence; for percentage damage caused to the plant, ECHCG POST: post-emergence
Protocol: as §1

Avena fatua (AVEFA) = experiment: Glasshouse herbicidal test, pre- and post-emergence, Avena fatua; details: 250 g/h, evaluated after 13 days, five point scale; for percentage damage caused to the plant, AVEFA POST: post-emergence; for percentage damage caused to the plant, AVEFA PRE: pre-emergence
Protocol: as §1

CC#Cc1cc(C)c(C2=C(OC(=O)Oc3ccccc3)CC3(CCN(C(C)=O)CC3)CC2=O)c(C)c1 [Compound P9]
percentage damage caused to the plant, SETFA POST (Setaria faberi (SETFA)): 5 (5=80-100%)
percentage damage caused to the plant, SETFA PRE (Setaria faberi (SETFA)): 5 (5=80-100%)
percentage damage caused to the plant, LOLPE POST (Lolium perenne (LOLPE)): 5 (5=80-100%)
percentage damage caused to the plant, LOLPE PRE (Lolium perenne (LOLPE)): 5 (5=80-100%)
percentage damage caused to the plant, ALOMY POST [1]: 5 (5=80-100%)
percentage damage caused to the plant, ALOMY PRE [1]: 5 (5=80-100%)
percentage damage caused to the plant, ECHCG PRE [2]: 5 (5=80-100%)
percentage damage caused to the plant, AVEFA POST (Avena fatua (AVEFA)): 5 (5=80-100%)
percentage damage caused to the plant, AVEFA PRE (Avena fatua (AVEFA)): 5 (5=80-100%)

CC#Cc1cc(C)c(C2=C(OC(=O)OC(C)C)CC3(CCN(C(C)=O)CC3)CC2=O)c(C)c1 [Compound P10]
percentage damage caused to the plant, SETFA POST (Setaria faberi (SETFA)): 5 (5=80-100%)
percentage damage caused to the plant, SETFA PRE (Setaria faberi (SETFA)): 5 (5=80-100%)
percentage damage caused to the plant, LOLPE POST (Lolium perenne (LOLPE)): 5 (5=80-100%)
percentage damage caused to the plant, LOLPE PRE (Lolium perenne (LOLPE)): 5 (5=80-100%)
percentage damage caused to the plant, ALOMY POST [1]: 5 (5=80-100%)
percentage damage caused to the plant, ALOMY PRE [1]: 5 (5=80-100%)
percentage damage caused to the plant, ECHCG POST [2]: 5 (5=80-100%)
percentage damage caused to the plant, ECHCG PRE [2]: 5 (5=80-100%)
percentage damage caused to the plant, AVEFA POST (Avena fatua (AVEFA)): 5 (5=80-100%)
percentage damage caused to the plant, AVEFA PRE (Avena fatua (AVEFA)): 5 (5=80-100%)

CC#Cc1cc(C)c(C2=C(OC(=O)C(C)(C)C)CC3(CCN(C(C)=O)CC3)CC2=O)c(C)c1 [Compound P11]
percentage damage caused to the plant, SETFA POST (Setaria faberi (SETFA)): 5 (5=80-100%)
percentage damage caused to the plant, SETFA PRE (Setaria faberi (SETFA)): 5 (5=80-100%)
percentage damage caused to the plant, LOLPE POST (Lolium perenne (LOLPE)): 5 (5=80-100%)
percentage damage caused to the plant, LOLPE PRE (Lolium perenne (LOLPE)): 5 (5=80-100%)
percentage damage caused to the plant, ALOMY POST [1]: 5 (5=80-100%)
percentage damage caused to the plant, ALOMY PRE [1]: 5 (5=80-100%)
percentage damage caused to the plant, ECHCG POST [2]: 5 (5=80-100%)
percentage damage caused to the plant, ECHCG PRE [2]: 5 (5=80-100%)
percentage damage caused to the plant, AVEFA POST (Avena fatua (AVEFA)): 5 (5=80-100%)
percentage damage caused to the plant, AVEFA PRE (Avena fatua (AVEFA)): 5 (5=80-100%)

CC#Cc1cc(C)c(C2=C(OC(=O)C(C)C)CC3(CCN(C(C)=O)CC3)CC2=O)c(C)c1 [Compound P12]
percentage damage caused to the plant, SETFA POST (Setaria faberi (SETFA)): 5 (5=80-100%)
percentage damage caused to the plant, SETFA PRE (Setaria faberi (SETFA)): 5 (5=80-100%)
percentage damage caused to the plant, LOLPE POST (Lolium perenne (LOLPE)): 5 (5=80-100%)
percentage damage caused to the plant, LOLPE PRE (Lolium perenne (LOLPE)): 5 (5=80-100%)
percentage damage caused to the plant, ALOMY POST [1]: 5 (5=80-100%)
percentage damage caused to the plant, ALOMY PRE [1]: 5 (5=80-100%)
percentage damage caused to the plant, ECHCG POST [2]: 5 (5=80-100%)
percentage damage caused to the plant, ECHCG PRE [2]: 5 (5=80-100%)
percentage damage caused to the plant, AVEFA POST (Avena fatua (AVEFA)): 5 (5=80-100%)
percentage damage caused to the plant, AVEFA PRE (Avena fatua (AVEFA)): 5 (5=80-100%)

CC#Cc1cc(C)c(C2=C(OS(=O)(=O)CC)CC3(CCN(C(C)=O)CC3)CC2=O)c(C)c1 [Compound P13]
percentage damage caused to the plant, SETFA POST (Setaria faberi (SETFA)): 5 (5=80-100%)
percentage damage caused to the plant, SETFA PRE (Setaria faberi (SETFA)): 5 (5=80-100%)
percentage damage caused to the plant, LOLPE POST (Lolium perenne (LOLPE)): 5 (5=80-100%)
percentage damage caused to the plant, LOLPE PRE (Lolium perenne (LOLPE)): 5 (5=80-100%)
percentage damage caused to the plant, ALOMY POST [1]: 5 (5=80-100%)
percentage damage caused to the plant, ALOMY PRE [1]: 4 (4=60-79%)
percentage damage caused to the plant, ECHCG POST [2]: 5 (5=80-100%)
percentage damage caused to the plant, ECHCG PRE [2]: 4 (4=60-79%)
percentage damage caused to the plant, AVEFA POST (Avena fatua (AVEFA)): 5 (5=80-100%)
percentage damage caused to the plant, AVEFA PRE (Avena fatua (AVEFA)): 5 (5=80-100%)

CC#Cc1cc(C)c(C2=C(OC(=O)SC(C)C)CC3(CCN(C(C)=O)CC3)CC2=O)c(C)c1 [Compound P14]
percentage damage caused to the plant, SETFA POST (Setaria faberi (SETFA)): 5 (5=80-100%)
percentage damage caused to the plant, SETFA PRE (Setaria faberi (SETFA)): 5 (5=80-100%)
percentage damage caused to the plant, LOLPE POST (Lolium perenne (LOLPE)): 5 (5=80-100%)
percentage damage caused to the plant, LOLPE PRE (Lolium perenne (LOLPE)): 5 (5=80-100%)
percentage damage caused to the plant, ALOMY POST [1]: 5 (5=80-100%)
percentage damage caused to the plant, ALOMY PRE [1]: 5 (5=80-100%)
percentage damage caused to the plant, ECHCG POST [2]: 5 (5=80-100%)
percentage damage caused to the plant, ECHCG PRE [2]: 5 (5=80-100%)
percentage damage caused to the plant, AVEFA POST (Avena fatua (AVEFA)): 5 (5=80-100%)
percentage damage caused to the plant, AVEFA PRE (Avena fatua (AVEFA)): 5 (5=80-100%)

CC#Cc1cc(C)c(C2=C(OC(=O)C3CC3)CC3(CCN(C(C)=O)CC3)CC2=O)c(C)c1 [Compound P15]
percentage damage caused to the plant, SETFA POST (Setaria faberi (SETFA)): 5 (5=80-100%)
percentage damage caused to the plant, SETFA PRE (Setaria faberi (SETFA)): 5 (5=80-100%)
percentage damage caused to the plant, LOLPE POST (Lolium perenne (LOLPE)): 5 (5=80-100%)
percentage damage caused to the plant, LOLPE PRE (Lolium perenne (LOLPE)): 5 (5=80-100%)
percentage damage caused to the plant, ALOMY POST [1]: 5 (5=80-100%)
percentage damage caused to the plant, ALOMY PRE [1]: 5 (5=80-100%)
percentage damage caused to the plant, ECHCG POST [2]: 5 (5=80-100%)
percentage damage caused to the plant, ECHCG PRE [2]: 5 (5=80-100%)
percentage damage caused to the plant, AVEFA POST (Avena fatua (AVEFA)): 5 (5=80-100%)
percentage damage caused to the plant, AVEFA PRE (Avena fatua (AVEFA)): 5 (5=80-100%)

CC#Cc1cc(C)c(C2=C(OC(=O)OC)CC3(CCN(C(=O)C(F)F)CC3)CC2=O)c(C)c1 [Compound P16]
percentage damage caused to the plant, SETFA POST (Setaria faberi (SETFA)): 5 (5=80-100%)
percentage damage caused to the plant, SETFA PRE (Setaria faberi (SETFA)): 5 (5=80-100%)
percentage damage caused to the plant, LOLPE POST (Lolium perenne (LOLPE)): 5 (5=80-100%)
percentage damage caused to the plant, LOLPE PRE (Lolium perenne (LOLPE)): 5 (5=80-100%)
percentage damage caused to the plant, ALOMY POST [1]: 5 (5=80-100%)
percentage damage caused to the plant, ALOMY PRE [1]: 5 (5=80-100%)
percentage damage caused to the plant, ECHCG POST [2]: 5 (5=80-100%)
percentage damage caused to the plant, ECHCG PRE [2]: 5 (5=80-100%)
percentage damage caused to the plant, AVEFA POST (Avena fatua (AVEFA)): 5 (5=80-100%)
percentage damage caused to the plant, AVEFA PRE (Avena fatua (AVEFA)): 5 (5=80-100%)

C#CCOC1=C(c2c(C)cc(C#CC)cc2C)C(=O)CC2(CCN(C(C)=O)CC2)C1 [Compound P17]
percentage damage caused to the plant, SETFA POST (Setaria faberi (SETFA)): 5 (5=80-100%)
percentage damage caused to the plant, SETFA PRE (Setaria faberi (SETFA)): 5 (5=80-100%)
percentage damage caused to the plant, LOLPE POST (Lolium perenne (LOLPE)): 5 (5=80-100%)
percentage damage caused to the plant, LOLPE PRE (Lolium perenne (LOLPE)): 5 (5=80-100%)
percentage damage caused to the plant, ALOMY POST [1]: 5 (5=80-100%)
percentage damage caused to the plant, ALOMY PRE [1]: 5 (5=80-100%)
percentage damage caused to the plant, ECHCG PRE [2]: 5 (5=80-100%)
percentage damage caused to the plant, AVEFA POST (Avena fatua (AVEFA)): 5 (5=80-100%)
percentage damage caused to the plant, AVEFA PRE (Avena fatua (AVEFA)): 5 (5=80-100%)

CC#Cc1cc(C)c(C2=C(OC(=O)OC)CC3(CCN(C(C)=O)CC3)CC2=O)c(OC)c1 [Compound P18]
percentage damage caused to the plant, SETFA POST (Setaria faberi (SETFA)): 5 (5=80-100%)
percentage damage caused to the plant, SETFA PRE (Setaria faberi (SETFA)): 5 (5=80-100%)
percentage damage caused to the plant, LOLPE POST (Lolium perenne (LOLPE)): 5 (5=80-100%)
percentage damage caused to the plant, LOLPE PRE (Lolium perenne (LOLPE)): 5 (5=80-100%)
percentage damage caused to the plant, ALOMY POST [1]: 5 (5=80-100%)
percentage damage caused to the plant, ALOMY PRE [1]: 5 (5=80-100%)
percentage damage caused to the plant, ECHCG PRE [2]: 5 (5=80-100%)
percentage damage caused to the plant, AVEFA POST (Avena fatua (AVEFA)): 5 (5=80-100%)
percentage damage caused to the plant, AVEFA PRE (Avena fatua (AVEFA)): 5 (5=80-100%)
